Assay results: patent US10085448B2, “Azoline compounds substituted by a carbocyclic condensed ring system” (BASF SE, priority 2014, dated 2018)
Where two headings read alike, the source gives them in different places.

Tests used:
Type in all cases: in vivo
[1] = test system: Vetch Aphid (Megoura viciae); assay: Vetch aphid leaf disk test; conditions: foliar, 120 h, read-out: mortality in comparison with untreated controls
Protocol: B.3 Vetch Aphid (Megoura viciae)
For evaluating control of vetch aphid (Megoura viciae) through contact or systemic means the test unit consisted of 24-well-microtiter plates containing broad bean leaf disks.
The compounds were formulated using a solution containing 75% v/v water and 25% v/v DMSO. Different concentrations of formulated compounds were sprayed onto the leaf disks at 2.5 μl, using a custom built micro atomizer, at two replications.
After application, the leaf disks were air-dried and 5-8 adult aphids placed on the leaf disks inside the microtiter plate wells. The aphids were then allowed to suck on the treated leaf disks and incubated at about 23±1° C. and about 50±5% relative humidity for 5 days. Aphid mortality and fecundity was then visually assessed.

[2] = test system: Mediterranean Fruitfly (Ceratitis capitata); assay: Mediterranean fruitfly insect diet test; conditions: 120 h, read-out: mortality in comparison with untreated controls
Protocol: B.6 Mediterranean Fruitfly (Ceratitis capitata)
For evaluating control of Mediterranean fruitfly (Ceratitis capitata) the test unit consisted of microtiter plates containing an insect diet and 50-80 C. capitata eggs. The compounds were formulated using a solution containing 75% v/v water and 25% v/v DMSO. Different concentrations of formulated compounds were sprayed onto the insect diet at 5 μl, using a custom built micro atomizer, at two replications.
(§1) After application, microtiter plates were incubated at about 28±1° C. and about 80±5% relative humidity for 5 days. Egg and larval mortality was then visually assessed.

[3] = test system: Rice Green Leafhopper (Nephotettix virescens); assay: Rice green leafhopper sprayed rice seedling test; conditions: 72 h, read-out: mortality in comparison with untreated controls
Protocol: B.8 Rice Green Leafhopper (Nephotettix virescens)
Rice seedlings were cleaned and washed 24 hours before spraying. The active compounds were formulated in 1:1 acetone:water (vol:vol), and 0.01% vol/vol surfactant (Kinetic HV) was added. Potted rice seedlings were sprayed with 5-6 ml test solution, air dried, covered with Mylar cages and inoculated with 10 adults. Treated rice plants were kept at about 28-29° C. and relative humidity of about 50-60%. Percent mortality was recorded after 72 hours.

[4] = test system: Green Peach Aphid (Myzus persicae); assay: Green peach aphid systemic artificial diet test; conditions: 72 h, read-out: mortality in comparison with untreated controls
Description: B.2 Green Peach Aphid (Myzus persicae)
For evaluating control of green peach aphid (Myzus persicae) through systemic means the test unit consisted of 96-well-microtiter plates containing liquid artificial diet under an artificial membrane.
The compounds were formulated using a solution containing 75% v/v water and 25% v/v DMSO. Different concentrations of formulated compounds were pipetted into the aphid diet, using a custom built pipetter, at two replications.
After application, 5-8 adult aphids were placed on the artificial membrane inside the microtiter plate wells. The aphids were then allowed to suck on the treated aphid diet and incubated at about 23±1° C. and about 50±5% relative humidity for 3 days. Aphid mortality and fecundity was then visually assessed.

[5] = test system: Red Spider Mite (Tetranychus kanzawai); assay: Red spider mite sprayed cowpea bean test; conditions: 72 h, read-out: mortality in comparison with untreated controls
Protocol: B.9 Red Spider Mite (Tetranychus kanzawai)
The active compound was dissolved at the desired concentration in a mixture of 1:1 (vol:vol) distilled water: acetone. Add surfactant (Kinetic HV) was added at a rate of 0.01% (vol/vol).The test solution was prepared at the day of use.
Potted cowpea beans of 4-5 days of age were cleaned with tap water and sprayed with 1-2 ml of the test solution using air driven hand atomizer. The treated plants were allowed to air dry and afterwards inoculated with 30 or more mites by clipping a cassava leaf section from rearing population. Treated plants were placed inside a holding room at about 25-27° C. and about 50-60% relative humidity. Percent mortality was assessed 72 hours after treatment.

[6] = test system: Southern Armyworm (Spodoptera eridania); assay: Southern armyworm sprayed lima bean test; conditions: 96 h, read-out: mortality in comparison with untreated controls
Protocol: B.10 Southern Armyworm (Spodoptera eridania)
The active compounds were formulated in cyclohexanone as a 10,000 ppm solution supplied in tubes. The tubes were inserted into an automated electrostatic sprayer equipped with an atomizing nozzle and they served as stock solutions for which lower dilutions were made in 50% acetone:50% water (v/v). A nonionic surfactant (Kinetic®) was included in the solution at a volume of 0.01% (v/v).
Lima bean plants (variety Sieva) were grown 2 plants to a pot and selected for treatment at the 1st true leaf stage. Test solutions were sprayed onto the foliage by an automated electrostatic plant sprayer equipped with an atomizing spray nozzle. The plants were dried in the sprayer fume hood and then removed from the sprayer. Each pot was placed into perforated plastic bags with a zip closure. About 10 to 11 armyworm larvae were placed into the bag and the bags zipped closed. Test plants were maintained in a growth room at about 25° C. and about 20-40% relative humidity for 4 days, avoiding direct exposure to fluorescent light (24 hour photoperiod) to prevent trapping of heat inside the bags. Mortality and reduced feeding were assessed 4 days after treatment, compared to untreated control plants.

[7] = test system: Diamond Back Moth (Plutella xylostella); assay: Diamond back moth leaf-dip test; conditions: read-out: mortality in comparison with untreated controls
Protocol: B.1 Diamond Back Moth (Plutella xylostella)
The active compound was dissolved at the desired concentration in a mixture of 1:1 (vol:vol) distilled water: aceteone. Surfactant (Kinetic HV) was added at a rate of 0.01% (vol/vol).The test solution was prepared at the day of use.
Leaves of cabbage were dipped in test solution and air-dried. Treated leaves were placed in petri dishes lined with moist filter paper and inoculated with ten 3rd instar larvae. Mortality was recorded 72 hours after treatment. Feeding damages were also recorded using a scale of 0-100%.

[8] = test system: Neotropical Brown Stink Bug (Euschistus heros); assay: Neotropical brown stink bug soybean pod spray test; conditions: 120 h, adults on soybean pods, sprayed, after 5 days, read-out: mortality in comparison with untreated controls
Protocol: B.12 Neotropical Brown Stink Bug (Euschistus heros)
(§2) The active compound was dissolved at the desired concentration in a mixture of 1:1 (vol:vol) distilled water: acetone. Surfactant (Kinetic HV) was added at a rate of 0.01% (vol/vol).The test solution was prepared at the day of use.
Soybean pods were placed in microwavable plastic cups and inoculated with ten adult stage E. heros. Using a hand atomizer, approximately 1 ml solution is sprayed into each cup, insects and food present. A water source was provided (cotton wick with water). Each treatment was replicated 2-fold. Assay arenas were kept at about 25° C. Percent mortality was recorded after 5 days.

[9] = test system: Tobacco Budworm (Heliothis virescens); assay: Tobacco budworm insect diet test; conditions: 120 h, read-out: mortality in comparison with untreated controls
Protocol: B.4 Tobacco Budworm (Heliothis virescens)
For evaluating control of tobacco budworm (Heliothis virescens) the test unit consisted of 96-well-microtiter plates containing an insect diet and 15-25 H. virescens eggs.
The compounds were formulated using a solution containing 75% v/v water and 25% v/v DMSO. Different concentrations of formulated compounds were sprayed onto the insect diet at 10 μl, using a custom built micro atomizer, at two replications.
as §1

[10] = test system: Green Soldier Stink Bug (Nezara viridula); assay: Green soldier stink bug soybean pod spray test; conditions: 120 h, read-out: mortality in comparison with untreated controls
Protocol: B.11 Green Soldier Stink Bug (Nezara viridula)
as §2
Soybean pods were placed in glass Petri dishes lined with moist filter paper and inoculated with ten late 3rd instar N. viridula. Using a hand atomizer, approximately 2 ml solution is sprayed into each Petri dish. Assay arenas were kept at about 25° C. Percent mortality was recorded after 5 days.

[11] = test system: Orchid Thrips (Dichromothrips corbetti); assay: Orchid thrips floral-immersion test; conditions: 72 h, read-out: mortality in comparison with untreated controls
Protocol: B.7 Orchid Thrips (Dichromothrips corbetti)
Dichromothrips corbetti adults used for bioassay were obtained from a colony maintained continuously under laboratory conditions. For testing purposes, the test compound is diluted in a 1:1 mixture of acetone:water (vol:vol), plus Kinetic HV at a rate of 0.01% v/v.
Thrips potency of each compound was evaluated by using a floral-immersion technique. All petals of individual, intact orchid flowers were dipped into treatment solution and allowed to dry in Petri dishes. Treated petals were placed into individual re-sealable plastic along with about 20 adult thrips. All test arenas were held under continuous light and a temperature of about 28° C. for duration of the assay. After 3 days, the numbers of live thrips were counted on each petal. The percent mortality was recorded 72 hours after treatment.

[12] = test system: Boll Weevil (Anthonomus grandis); assay: Boll weevil insect diet test; conditions: 120 h, read-out: mortality in comparison with untreated controls
Protocol: B.5 Boll Weevil (Anthonomus grandis)
For evaluating control of boll weevil (Anthonomus grandis) the test unit consisted of 96-well-microtiter plates containing an insect diet and 5-10 A. grandis eggs.
The compounds were formulated using a solution containing 75% v/v water and 25% v/v DMSO. Different concentrations of formulated compounds were sprayed onto the insect diet at 5 μl, using a custom built micro atomizer, at two replications.
After application, microtiter plates were incubated at about 25±1° C. and about 75±5% relative humidity for 5 days. Egg and larval mortality was then visually assessed.

[13] = 2500 ppm, egg and larval mortality on sprayed insect diet, 5 days

CC(=O)NCc1ccc(C2=NOC(c3cc(Cl)c(F)c(Cl)c3)(C(F)(F)F)C2)c2c1CCC2 (stereo not drawn) [Compound 1-4, N-[[7-[5-(3,5-Dichloro-4-fluoro-phenyl)-5-(trifluoromethyl)-4H-isoxazol-3-yl]indan-4-yl]methyl]acetamide]
≥ 75%: mortality at 2500 ppm [1] | mortality at 2500 ppm [2] | mortality at 300 ppm [3] | mortality at 2500 ppm [4] | mortality at 300 ppm [5] | mortality at 10 ppm [6] | mortality at 300 ppm ([7]; in Brassica oleracea, 72 h) | mortality at 100 ppm [8] | mortality at 2500 ppm [9] | mortality at 300 ppm [10] | mortality at 300 ppm [11] | mortality at 2500 ppm [12]

O=C(NCC(F)(F)F)N/N=C/c1ccc(C2=NOC(c3cc(Cl)c(F)c(Cl)c3)(C(F)(F)F)C2)c2c1CCC2 (stereo not drawn) [Compound 2-3, 1-[(E)-[7-[5-(3,5-Dichloro-4-fluoro-phenyl)-5-(trifluoromethyl)-4H-isoxazol-3-yl]indan-4-yl]methyleneamino]-3-(2,2,2-trifluoroethyl)urea]
≥ 75%: mortality at 2500 ppm [1] | mortality at 2500 ppm [2] | mortality at 2500 ppm [4] | mortality at 300 ppm [5] | mortality at 300 ppm ([7]; in Brassica oleracea, 72 h) | mortality at 2500 ppm [9] | mortality at 300 ppm [11] | mortality at 2500 ppm [12]

O=C(NCC(F)(F)F)N/N=C/c1ccc(C2=NCC(c3cc(Cl)cc(Cl)c3)(C(F)(F)F)C2)c2c1CCC2 (stereo not drawn) [Compound 3-1, 1-[(E)-[7-[3-(3,5-Dichlorophenyl)-3-(trifluoromethyl)-2,4-dihydropyrrol-5-yl]indan-4-yl]methyleneamino]-3-(2,2,2-trifluoroethyl)urea]
≥ 75%: mortality at 2500 ppm ([1]; 2500 ppm, adult aphids on sprayed broad bean leaf disks, 5 days) | mortality at 2500 ppm [2, 13] | mortality at 2500 ppm ([4]; 2500 ppm, adult aphids on treated artificial diet, 3 days) | mortality at 10 ppm ([6]; 10 ppm, larvae on sprayed lima bean plants, 4 days after treatment) | mortality at 300 ppm ([7]; 300 ppm, cabbage leaves dipped, 3rd instar larvae, 72 hours after treatment) | mortality at 2500 ppm [9, 13] | mortality at 2500 ppm [12, 13]

Fc1c(Cl)cc(C2(C(F)(F)F)CC(c3ccc(-n4cncn4)c4c3CCC4)=NO2)cc1Cl (stereo not drawn) [Compound 4-1, 5-(3,5-Dichloro-4-fluoro-phenyl)-3-[7-(1,2,4-triazol-1-yl)indan-4-yl]-5-(trifluoromethyl)-4H-isoxazole]
≥ 75%: mortality at 300 ppm [3] | mortality at 300 ppm ([7]; in Brassica oleracea, 72 h) | mortality at 300 ppm [11]
